The text below walks through data of US8722849B2, “Polypeptides” (Novo Nordisk A/S, priority 2011, dated 2014).

In brackets after ≈: the same amount, converted by molar mass. Where two headings read alike, the source gives them in different places. Starred links: 1 amine or outer side, 2 acyl side, 3 side chain; linkers in the order of their positions; H or OH if unused. Positions of bridges follow the written chain, without caps; N, C: chain ends. Residues, ends and D or L forms follow the SMILES beside them. *: point of attachment. C20 diacid = O=C(O)CCCCCCCCCCCCCCCCCCC(=O)*; γGlu = O=C(O)[C@H](CCC(=O)[*:2])N[*:1]

Data set [1] addresses T1, human amylin receptor (amylin 3(a) receptor: human calcitonin receptor + RAMP-3) (Homo sapiens, UniProt O60896+P30988).
T1 construct: expressed in transfected cells; host or cells: BHK570
T1 sequence (P30988 25-474): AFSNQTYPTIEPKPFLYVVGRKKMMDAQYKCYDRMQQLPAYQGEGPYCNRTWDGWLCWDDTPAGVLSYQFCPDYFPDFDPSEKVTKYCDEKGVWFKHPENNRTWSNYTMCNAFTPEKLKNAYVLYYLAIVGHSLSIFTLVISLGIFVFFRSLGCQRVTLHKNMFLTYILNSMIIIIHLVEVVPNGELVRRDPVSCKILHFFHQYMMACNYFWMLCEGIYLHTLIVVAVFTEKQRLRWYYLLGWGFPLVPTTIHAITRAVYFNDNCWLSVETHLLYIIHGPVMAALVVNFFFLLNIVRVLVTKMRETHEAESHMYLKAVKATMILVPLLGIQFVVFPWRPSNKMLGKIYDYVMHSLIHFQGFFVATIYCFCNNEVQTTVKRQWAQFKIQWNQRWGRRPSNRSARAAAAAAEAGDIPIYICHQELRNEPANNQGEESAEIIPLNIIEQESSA
T1 sequence (O60896 24-148 partner): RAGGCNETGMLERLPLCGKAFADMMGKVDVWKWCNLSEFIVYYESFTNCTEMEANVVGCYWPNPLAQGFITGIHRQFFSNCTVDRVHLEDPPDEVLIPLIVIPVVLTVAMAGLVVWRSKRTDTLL
In words: Assay (II)a functional CRE-luciferase assay, human amylin receptor. The format is cell-based.

In data set [2] the target is T2, human calcitonin receptor (Homo sapiens, UniProt P30988).
T2 construct: expressed in transfected cells; host or cells: BHK570
T2 sequence (P30988 25-474): T1 sequence (P30988 25-474)
In words: Assay (II)a functional CRE-luciferase assay, human calcitonin receptor. The format is cell-based. As to conditions: Table 7; human calcitonin (CTa) receptor.

The nature of data set [3]: Assay (III) ThT fibrillation assay for physical stability. The format is physicochemical. The source says:
ASSAY (III)—ThT Fibrillation Assays for the Assessment of Physical Stability of Protein formulations Low physical stability of a polypeptide may lead to amyloid fibril formation, which is observed as well-ordered, thread-like macromolecular structures in the sample eventually resulting in gel formation. This has traditionally been measured by visual inspection of the sample. However, that kind of measurement is very subjective and depending on the observer. Therefore, the application of a small molecule indicator probe is much more advantageous. Thioflavin T (ThT) is such a probe and has a distinct fluorescence signature when binding to fibrils [Naiki et al. (1989) Anal. Biochem. 177, 244-249; LeVine (1999) Methods. Enzymol. […], 274-284]. The time course for fibril formation can be described by a sigmoidal curve with the following expression [Nielsen et al. (2001) Biochemistry 40, 6036-6046]: [formula] Here, F is the ThT fluorescence at the time t. The constant t0 is the time needed to reach 50% of maximum fluorescence. […] Few of those intermediates nucleate to form a template onto which further intermediates may assembly and the fibrillation proceeds. The lag-time corresponds to the interval in which the critical mass of nucleus is built up and the apparent rate constant is the rate with which the fibril itself is formed. Sample Preparation Samples were prepared freshly before each assay. Each sample composition is described in each example. The pH of the sample was adjusted to the desired value using appropriate amounts of concentrated NaOH and HClO4 or HCl. Thioflavin T was added to the samples from a stock solution in H2O to a final concentration of 1 μM. Sample aliquots of 200 μl were placed in a 96 well microtiter plate (Packard OptiPlate™-96, white polystyrene). Usually, four or eight replica of each sample (corresponding to one test condition) were placed in one column of wells. The plate was sealed with Scotch Pad (Qiagen). Incubation and Fluorescence Measurement Incubation at given temperature, shaking and measurement of the ThT fluorescence emission were done in a Fluoroskan Ascent FL fluorescence platereader or Varioskan platereader (Thermo Labsystems). The temperature was adjusted to 37° C. The orbital shaking was adjusted to 960 rpm with an amplitude of 1 mm in all the presented data. Fluorescence measurement was done using excitation through a 444 nm filter and measurement of emission through a 485 nm filter. Each run was initiated by incubating the plate at the assay temperature for 10 min. The plate was measured every 20 minutes for a desired period of time. Between each measurement, the plate was shaken and heated as described. Data Handling The measurement points were saved in Microsoft Excel format for further processing and curve drawing and fitting was performed using GraphPad Prism. The background emission from ThT in the absence of fibrils was negligible. The data points are typically a mean of four or eight samples and shown with standard deviation error bars. Only data obtained in the same experiment (i.e. samples on the same plate) are presented in the same graph ensuring a relative measure of fibrillation between experiments. The data set may be fitted to Eq. (1). However, since full sigmodial curves in this case are not always achieved during the measurement time, the degree of fibrillation is expressed as ThT fluorescence tabulated as the mean of the samples and shown with the standard deviation at various time points. Measurement of Initial and Final Concentrations The polypeptide concentration in each of the tested formulations were measured both before application in the ThT fibrillation assay (“Initial”) and after completion of the ThT fibrillation (“After ThT assay”). Concentrations were determined by reverse HPLC methods using a pramlintide standard as a reference. Before measurement after completion 150 μl was collected from each of the replica and transferred to an Eppendorf tube. […]

A short description of data set [4]: Assay (IV) determination of solubility. The data set is classed as physicochemical. The gist of the method:
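Polypeptide in water (~500 nmol/ml) mixed 1:1 with 100 mM glycylglycine (pH 3.0–5.0) or bistrispropane (pH 6.0–8.0) buffers. Held 18 hours at room temperature, then centrifuged. Polypeptide remaining in solution quantified by HPLC.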

The mark [5] stands for this setting: bistrispropane buffer, pH 6, pH 6.0, read-out: Solubility pH 6.0.
Where [6] appears, read: bistrispropane buffer, pH 6.5, pH 6.5, read-out: Solubility pH 6.5.
[7] abbreviates: bistrispropane buffer, pH 7, pH 7.0, read-out: Solubility pH 7.0.
Setting [8] is: bistrispropane buffer, pH 7.5, pH 7.5, read-out: Solubility pH 7.5.
Where [9] appears, read: bistrispropane buffer, pH 8, pH 8.0, read-out: Solubility pH 8.0.
Setting [10] is: glycylglycine buffer, pH 3, pH 3.0, read-out: Solubility pH 3.0.
Setting [11] is: glycylglycine buffer, pH 4, pH 4.0, read-out: Solubility pH 4.0.
The mark [12] stands for this setting: glycylglycine buffer, pH 5, pH 5.0, read-out: Solubility pH 5.0.

For orientation: EC50 means the concentration that produces a half-maximal response. What is called solubility is the concentration that dissolves in the medium under given conditions. Consider `CC[C@H](C)[C@H](NC(=O)[C@@H]1CCCN1C(=O)CNC(=O)[C@H](Cc1ccccc1)NC(=O)[C@H](CC(N)=O)NC(=O)[C@H](CC(N)=O)NC(=O)[C@H](CO)NC(=O)[C@H](CO)NC(=O)[C@H](Cc1c[nH]cn1)NC(=O)[C@H](Cc1c[nH]cn1)NC(=O)[C@H](CC(C)C)NC(=O)[C@H](Cc1ccccc1)NC(=O)[C@H](CCC(=O)O)NC(=O)[C@H](C)NC(=O)[C@H](CC(C)C)NC(=O)[C@H](CCCNC(=N)N)NC(=O)[C@H](CCC(N)=O)NC(=O)[C@@H](NC(=O)[C@H](C)NC(=O)[C@@H]1CSSC[C@H](NC(=O)[C@H](CCCCN)NC(=O)CC[C@H](NC(=O)CCCCCCCCCCCCCCCCCCC(=O)O)C(=O)O)C(=O)N[C@@H](CC(N)=O)C(=O)N[C@@H]([C@@H](C)O)C(=O)N[C@@H](C)C(=O)N[C@@H]([C@@H](C)O)C(=O)N1)[C@@H](C)O)C(=O)N[C@@H](CC(C)C)C(=O)N1CCC[C@H]1C(=O)N1CCC[C@H]1C(=O)N[C@H](C(=O)N[C@@H](CC(N)=O)C(=O)N[C@H](C(=O)NCC(=O)N[C@@H](CO)C(=O)N[C@@H](CCCCN)C(=O)N[C@H](C(=O)N[C@@H](Cc1ccc(O)cc1)C(N)=O)[C@@H](C)O)C(C)C)[C@@H](C)O` [Example 113, N-alpha-[(S)-4-Carboxy-4-(19-carboxynonadecanoylamino)butyryl]-[Glu14,His17,Lys35]-pramlintide] ({C20 diacid-γGlu}-KCNTATCATQRLAEFLHHSSNNFGPILPPTNVGSKTY-NH2; disulfide 2-7 (inferred)), for which the EC50 was found to be 0.134 nM in data set [1] (Table 2, BHK amylin 3(a)-receptor/CRE-luc cells) and 0.13 nM in data set [2]. Also, the “ThT pH 4.0 lag time” value in data set [3] (Table 8), in data set [3] (Table 9) and in data set [3] (ThT fibrillation assay) was greater than 45 h throughout. In addition, the “ThT pH 4.0 lag time (h)” value in data set [3] (ThT fibrillation assay) was greater than 45 h. Moreover, the solubility at 18 h in data set [4] (setting [5]) is greater than 200 µM; in data set [4] (setting [6]), greater than 200 µM; in data set [4] (bistrispropane buffer, pH 7, pH 7.0, 18 hours at room temperature, Table 3, read-out: Solubility pH 7.0) it was greater than 200 µM; in data set [4] (bistrispropane buffer, pH 7, pH 7.0, Table 8, read-out: Solubility pH 7.0), greater than 200 µM; in data set [4] (bistrispropane buffer, pH 7, pH 7.0, Table 9, read-out: Solubility pH 7.0), greater than 200 µM; in data set [4] (setting [7]) it was greater than 200 µM. Besides, the solubility at 18 h in data set [4] (bistrispropane buffer, pH 7.5, pH 7.5, Table 9, read-out: Solubility pH 7.5) is 188 µM (≈ 840 µg/mL); in data set [4] (setting [8]) it was 188 µM (≈ 840 µg/mL); in data set [4] (setting [9]), 124 µM (≈ 554 µg/mL); in data set [4] (setting [10]), greater than 200 µM; in data set [4] (glycylglycine buffer, pH 4, pH 4.0, 18 hours at room temperature, Table 2, read-out: Solubility pH 4.0) it was greater than 200 µM; in data set [4] (setting [11]) it was greater than 200 µM. The solubility at 18 h in data set [4] (setting [12]) is greater than 200 µM.

Regarding “{C20 diacid-γGlu}-SSGSSGCNTATCATQRLAEFLHHSSNNFGPILPPTNVGSNTY-NH2 (disulfide 7-12 (inferred)) [Example 39, N-alpha-[(S)-4-Carboxy-4-(19-carboxynonadecanoylamino)butyryl]-Ser-Ser-Gly-Ser-Ser-[Gly1,Glu14,His17]-pramlintide]”, the EC50 stood at 0.253 nM in data set [1] (Table 6, human amylin receptor) and 0.432 nM in data set [2]. Moreover, the “ThT pH 4.0 lag time (h)” value in data set [3] (ThT fibrillation assay) was determined as 0 h. Moreover, the solubility at 18 h in data set [4] (setting [5]) was 6 µM; in data set [4] (setting [6]), 4 µM; in data set [4] (setting [7]) it was 1 µM; in data set [4] (setting [8]) it was 25 µM; in data set [4] (setting [9]), 26 µM; in data set [4] (setting [10]), greater than 200 µM. Moreover, the solubility at 18 h came out at 84 µM in data set [4] (setting [11]) and 52 µM in data set [4] (setting [12]).

As to `CC[C@H](C)[C@H](NC(=O)[C@@H]1CCCN1C(=O)CNC(=O)[C@H](Cc1ccccc1)NC(=O)[C@H](CC(N)=O)NC(=O)[C@H](CC(N)=O)NC(=O)[C@H](CO)NC(=O)[C@H](CO)NC(=O)[C@H](Cc1c[nH]cn1)NC(=O)[C@H](CCCNC(=N)N)NC(=O)[C@H](CC(C)C)NC(=O)[C@H](Cc1ccccc1)NC(=O)[C@H](CCC(=O)O)NC(=O)[C@H](C)NC(=O)[C@H](CC(C)C)NC(=O)[C@H](CCCNC(=N)N)NC(=O)[C@H](CCC(N)=O)NC(=O)[C@@H](NC(=O)[C@H](C)NC(=O)[C@@H]1CSSC[C@H](NC(=O)[C@H](CCCNC(=N)N)NC(=O)[C@H](CCC(=O)O)NC(=O)CC[C@H](NC(=O)CCCCCCCCCCCCCCCCCCC(=O)O)C(=O)O)C(=O)N[C@@H](CC(N)=O)C(=O)N[C@@H]([C@@H](C)O)C(=O)N[C@@H](C)C(=O)N[C@@H]([C@@H](C)O)C(=O)N1)[C@@H](C)O)C(=O)N[C@@H](CC(C)C)C(=O)N1CCC[C@H]1C(=O)N1CCC[C@H]1C(=O)N[C@H](C(=O)N[C@@H](CC(N)=O)C(=O)N[C@H](C(=O)NCC(=O)N[C@@H](CO)C(=O)N[C@@H](CC(N)=O)C(=O)N[C@H](C(=O)N1CCC[C@H]1C(N)=O)[C@@H](C)O)C(C)C)[C@@H](C)O` [Example 156, N-alpha-[(S)-4-Carboxy-4-(19-carboxynonadecanoylamino)butyryl]-Glu-[Arg1,Glu14,Arg17,Pro37]-pramlintide] ({C20 diacid-γGlu}-ERCNTATCATQRLAEFLRHSSNNFGPILPPTNVGSNTP-NH2; disulfide 3-8 (inferred)), the EC50 is 0.066 nM in data set [1] (Table 5) and 0.168 nM in data set [2]. Also, the “ThT pH 4.0 lag time” value in data set [3] (ThT fibrillation assay) was greater than 45 h. Also, in data set [3] (ThT fibrillation assay), the “ThT pH 4.0 lag time (h)” value is greater than 45 h.
